Results published in patent US11001820B2, “Delivery of therapeutic agents by a collagen binding protein” (THE BOARD OF TRUSTEES OF THE UNIVERSITY OF ARKANSAS, priority 2011, dated 2021).

Columns and labels:
androgenic alopecia = settings: long-term (10 years) therapy; cited from earlier work
[1] = Circular dichroism thermal denaturation of collagenous peptides; assay type: physicochemical; settings: triple helix thermostability by [θ]225, 0.3° C./min, 1 mg/ml in water
Procedure: The triple helical conformation and the stability of the collagenous peptides were verified using CD spectroscopy (See FIGS. 3 and 4). CD spectra were recorded with a J-820 CD spectropolarimeter (JASCO Co., Hachioji, Japan) equipped with a Peltier thermo controller, using a 0.5-mm quartz cuvette and connected to a data station for signal averaging. All peptide samples were dissolved in water (1 mg/ml), and stored at 4° C. for 24 h. The spectra are reported in terms of ellipticity units per mole of peptide residues [θ]mrw. Thermostability of the triple helix was monitored by the [θ]225 values of each peptide with increasing temperature at the rate of 0.3° C./min.

mice = assay: Chemotherapy-induced alopecia without depilation; assay type: in vivo
Procedure: While the depilated model of chemotherapy-induced alopecia provides a uniform model for comparison of drug effects, the depilation process is known to cause hair follicle injury, and may alter the response of the animals to the PTH-CBD administration. We therefore tested the effects of PTH-CBD in another model of chemotherapy-induced alopecia, where the animals were given 3 courses of cyclophosphamide therapy (50 mg/kg/wk), similar to the usual manner in which cancer patients might be treated. In this model, it takes much longer (4-6 months) for alopecia to develop.
In a second study, we compared the effects of PTH-CBD when given prophylactically, at the time of the first cycle of chemotherapy, vs. therapeutically, after the hair loss had developed. […] This is evident both visually and quantitatively in FIG. 17, using the same grey scale analysis used in our dose-response study.

engrafted C3H/Hej mouse = assay: Alopecia areata model; assay type: in vivo
Description: Alopecia Areata is a disease of patchy hair loss due to autoimmune destruction of the hair follicles. We tested the efficacy of PTH-CBD in promoting regrowth of hair in an animal model of alopecia areata, the engrafted C3H/Hej mouse. In this model, hair loss develops variably over the first 2 months of life. Shown in FIG. 19 is the results of a single dose of PTH-CBD (320 mcg/kg subcutaneous) administered into the engrafted site, the center of the back, where there was maximal hair loss. Compared to vehicle control animals, which continued to lose hair at this site, animals receiving PTH-CBD began to show regrowth of hair within the next 1-4 days.

ovarectomized rat = assay: Ovarectomized aged rats, single dose, sacrifice 6 months after therapy; assay type: in vivo; settings: 6 months after single dose 320 mcg/kg
Procedure: In this experiment, rats had their ovaries surgically removed at age 3 months. At age 9 months, rats were injected with either a single dose of PTH-CBD (320 mcg/kg) or vehicle control. Animals were sacrificed 6 months after therapy (age 15 months). […] Serum calcium was measured and there were no differences between groups (Vehicle: 13.5+/−1.1 vs. PTH-CBD: 14.3+/−1.1 mg/dl, NS). […] These findings indicate that a single injection of PTH-CBD can provide long-term suppression of endogenous PTH production, preventing the normal rise seen with age in the ovarectomized rat model, and thus may serve as a therapy for hyperparathyroidism.

[2] = Tissue distribution of 35S-labelled PTH-CBD by whole-body autoradiography; assay type: in vivo, mice; settings: subcutaneous injection, 1 hour and 12 hours
Procedure: Tissue distribution was assessed by administering ^35S-labelled PTH-CBD via subcutaneous injection, followed by whole mount frozen and whole-body autoradiography. PTH-CBD with a phosphorylation site between PTH(1-33) and the CBD was purified, activated and labeled with […] as described previously. Tamai et al. (2003) Infect Immun. 71:5371-5375. Approximately 10.8 mcg of ^35S-PTH-CBD (122 kcm/mcg) was injected subcutaneously in 7 week-old mice (32-35 g). Mice were sacrificed at 1 hour or 12 hours post-injection, and then frozen in dry ice-acetone. Frozen sections ([…]) were prepared with an autocryotome, dried at −20° C., and exposed to an image plate for 4 weeks. There appeared to be an initial distribution of ^35S-PTH-CBD to a broad area of skin around the site of injection, followed by a rapid redistribution to the skin of the entire animal, as well as to several other tissues (i.e. bone, intestine, bladder) (FIG. 11).

C57/BL6J mice = assay: Depilation alopecia (waxing); assay type: in vivo
Description: The agonist PTH-CBD appears to increase hair growth by increasing the number of anagen phase hair follicles. As such, there is no reason to believe that hair growth effects should be limited to the chemotherapy model. We therefore tested both PTH-CBD and antagonist compound, PTH(7-33)-CBD, after removing hair from C57/BL6J mice by waxing (FIG. 18). […] Thus, it appears that agonist therapy is acting to promote more rapid regrowth of hair by promoting more rapid transition to the anagen phase, while the antagonist inhibited hair regrowth by blocking this transition.

C57BL/6J mice = assay: Chemotherapy-induced alopecia (cyclophosphamide) in depilated mice; assay type: in vivo
Procedure: We compared efficacy of CBD linked PTH agonists and antagonists in chemotherapy-induced alopecia, utilizing an experimental design published by Peters, et al., for non-CBD linked PTH compounds. Peters, et al. (2001) J Invest Dermatol 117:173-178. C57BL/6J mice (Jackson Laboratories, Bar Harbor, Me.) were depilated to synchronize the hair follicles, and cyclophosphamide (CYP, 150 mg/kg) was administered on day 9 to maximize the chemotherapy-induced damage. The agonist (PTH-CBD) and the antagonist (PTH(7-33)-CBD) were administered 2 days prior to chemotherapy, and given the long-term retention of the compounds in the skin, we administered only a single dose to cover the timing of the multiple injections of PTH agonist and antagonist in the study by Peters, et. al. The administered dose of CBD-linked compounds (320 mcg/kg) is well tolerated in mice. Ponnapakkam et al. (2011) Calcif 88:511-520. […].
We followed these studies by comparing the effects of different doses of PTH-CBD in chemotherapy-induced alopecia. In these studies, we applied the injections more distally on the back and applied a gray-scale analysis to quantify the amount of hair growth. Injecting more distally in the back allows us to compare regrowth of hair after PTH-CBD treatment with less interference from the normal hair regrowth, which normally proceeds from head to tail in mice.

For `CC(C)(C)NC(=O)[C@H]1CC[C@H]2[C@@H]3CC[C@H]4NC(=O)C=C[C@]4(C)[C@H]3CC[C@]12C` [Finasteride], the response rates (androgenic alopecia) is given as “around 50%”.

With PROXYL-(POG)5POA(POG)4 the “Melting temperatures (Tm)” value [1] was 28 °C.

With “PTH-CBD: first 33 amino acids of PTH linked directly to the collagen binding domain (SEQ ID NO: 1)” the “effect on hair, prophylactic vs. therapeutic dosing” value (mice; grey scale analysis) was “effective in both instances”, the hair loss (mice; single dose 320 mcg/kg subcutaneous prior to first of 3 cyclophosphamide courses) was “did not develop hair loss” and the duration of response (engrafted C3H/Hej mouse; single dose 320 mcg/kg) was “sustained during the 2 month course”. The “time to regrowth of hair” value (engrafted C3H/Hej mouse; single dose 320 mcg/kg subcutaneous into engrafted site) was 1 to 4 days, the “Human intact PTH levels (serum levels of PTH-CBD)” value (ovarectomized rat) was “undetectable” and the “Rat intact PTH levels (endogenous PTH production)” value (ovarectomized rat) was “suppressed the normal increase in endogenous PTH levels”. The serum calcium (ovarectomized rat; NS vs vehicle) was 14.3 ± 1.1 mg/dL, the tissue distribution [2] was “distribution and retention to skin” and the anagen eruption (C57/BL6J mice; after waxing, vehicle day 9) was 7 days. The regrowth of hair (C57/BL6J mice; end of study (day 18)) was “more complete regrowth of hair”, the “hair regrowth, gray-scale analysis” value (C57BL/6J mice; 100, 320, 1000 mcg/kg) was “dose-dependent effect” and the hair follicle histology (C57BL/6J mice; H&E, day 36, 320 mcg/kg) was “deeper rooting and reduced melanocyte clumping”. The “excess hair length or growth” value (C57BL/6J mice; body, ears and tail) was “no evidence of excess hair length”, the “Counts of anagen VI hair follicles per high-powered field” value (C57BL/6J mice; day 36, 320 mcg/kg) was “higher number of hair follicles” and the adverse effects (C57BL/6J mice; mouse, in vivo) was “no evidence of adverse effects”. The serum calcium (C57BL/6J mice; mouse, in vivo) was “no effect” and the “hair growth (photodocumentation)” value (C57BL/6J mice; single dose 320 mcg/kg, 2 days prior to CYP, day 36) was “far more effective at stimulating hair growth than was the antagonist”.

With ^11PROXYL-(POG)3PCG(POG)4 the “Melting temperatures (Tm)” value [1] was 28 °C.

For PROXYL-(POG)4POA(POG)5, the “Melting temperatures (Tm)” value [1] was 29 °C.

In the case of PROXYL-(POG)3POA(POG)6, the “Melting temperatures (Tm)” value [1] is reported as 28 °C.

With (POG)4POA(POG)5 the “Melting temperatures (Tm)” value [1] was 29 °C.

With (POG)4POA(POG)5C-PROXYL the “Melting temperatures (Tm)” value [1] was 30 °C.

For PROXYL-(POG)6POA(POG)3, the “Melting temperatures (Tm)” value [1] was 27 °C.
